Here are results for 3 molecules from patent US5786165A, “Herbicide test method” (Agrevo UK Limited, priority 1994, dated 1998).

Data set [1] relates to crude, desalted homogenates from pea seedlings. Description: Adenylate metabolism pathway in a crude plant homogenate. The data set is classed as in vitro ADME, Peas (Pisum sativum L var Onward). To be noted: without ATP, 10 minutes at 25° C. As to the method: Peas (Pisum sativum L var Onward) were grown in soil for 10 days at 25° C. with a 16 hour/8 hour light/dark cycle. The seedlings were harvested close to soil level and a crude homogenate of was prepared by homogenization in 2 volumes of ice cold buffer containing tris-HCl (0.1M, pH 7.4 with 5M NaOH), 0.1 mM dithiothreitol and 0.4M sucrose using a Waring blender (1 minute, top speed). The homogenate was passed through 6 layers of muslin and 2.5 ml desalted on a sephadex (Registered Trade Mark) PD10 column (1.5 cm×8 cm) which had been pre-equilibrated with the homogenization buffer. Protein was eluted using the same buffer. The assay contained, in a total volume of 250 μl, 50 mM Tris-HCl (pH 6.5), 50 mM KCl, 0.05% (w/v) BSA and […] protein. ATP (5 mM) was also included where indicated. The assay was started by the addition of [^14 C] adenosine (500 μM, 0.2 μCi). After incubation at 25° C. for 10 minutes, the reaction was stopped by the addition of 0.25 ml ice cold HClO4 (0.4M). Precipitated protein was removed by centrifugation (13,000 g, 2 minutes) and 0.4 ml of the resulting supernatant applied to phenylsilane bonded silica gel columns (500 mg) which had been previously washed with 2 volumes of methanol and then 2 ml 0.4M HClO4. Samples were eluted with 4 ml 0.4M HClO4. The pH of the eluate was adjusted on ice to between 5.5 and 7.0 with 5M KOH. The neutralised extract was centrifuged (13,000 g, 2 minutes) and evaporated to dryness in a Gyrovap (Registered Trade Mark). The sample was then re-dissolved in 0.5 ml 10 mM HCl and centrifuged (13,000 g, 2 minutes) prior to HPLC analysis. The products were analysed using reverse phase chromatography with a spherisorb (Registered Trade Mark) column (25 cm×0.46 cm), solvent 1: 95:5 10 mM KH2 PO4 : methanol; solvent 2: 88:12 10 mM KH2 PO4 : methanol, pH 5.3, step change at 6 minutes, Flow rate: 1 ml/minute.

The subject of another data set is plant AMP deaminase. Description: Plant AMP deaminase inhibition assay. The class given is biochemical, Pea seedlings. Conditions: for IC50: 10 minute preincubation, substrate concentration 640 μM, read-out: 50% inhibition of AMP deaminase activity. As to the method: (§1) Pea seedlings were excised near soil level, the stems quickly washed with distilled water and then stood upright in a […] containing 2 ml of compound solution or water (control). A section (approx 2 mm) was cut from the base of the stem while it was immersed to prevent air locks from forming in the xylem. The seedlings were incubated in the light at room temperature (approx 20° C.) in a moving air stream. At intervals, individual seedlings were extracted and the levels of AMP deaminase determined by extraction in 2 volumes ice cold citrate buffer (0.1M, pH 7), 0.5 mM dithiothreitol using a pestle and mortar. The homogenate was passed through 6 layers of muslin and loaded onto a sephadex gel filtration column (1.5 cm×8 cm) which had previously been equilibrated with 30 mM citrate (pH 7.1), 50 mM KCl and 0.5% (w/v) BSA (Assay buffer). The protein was eluted using the assay buffer and used directly for the enzyme assay. The assay is based on the release of ammonia (McCullough (1967), Clinica Chimica Acta, 17, 297) and contained in a total volume of 0.5 ml 60 mM citrate buffer (pH 7.1 with 5M NaOH) 100 mM KCl, 0.1% (w/v) BSA and 5 mM AMP. The reaction was started by the addition of 50 μl extract. At 15 minute intervals from 0 to 60 minutes, the reaction was stopped by the addition of 420 μl reagent 1 (0.1M phenol, 0.17 mM sodium nitroprusside) immediately followed by 275 μl reagent 2 (0.125M NaOH, 0.38M Na2 HPO4 and 5 ml HOCl in a total volume of 500 ml). Following incubation for 60 minutes at 55° C., the absorbance of the solutions at 625 nm was determined.
Pea seedlings were grown as described in Test Example 2. The seedlings were harvested close to soil level and homogenized in 2 volumes of ice cold phosphate buffer (pH 7.5) containing 0.1 mM dithiothreitol and 0.4M sucrose using a Waring blender (1 minute, top speed). All of the following operations were carried out at 4° C. The homogenate was filtered through 6 layers of muslin and centrifuged at 100,000 g for 20 minutes to remove cell debris. To the resulting supernatant was added 40% (w/v) ammonium sulphate while stirring constantly. The precipitate was collected by centrifugation (12,000 g, 15 minutes) and dissolved in 30 ml phosphate buffer (pH 7.5), 0.1 mM dithiothreitol then dialyzed overnight against 2 l of the same buffer. Insolubles formed during the overnight dialysis were removed by centrifugation (7,000 g, 10 minutes). The supernatant was applied to a phospho-cellulose column (1.5×8 cm) which had been pre-equilibrated with 0.1M phosphate buffer (pH 7.5). After loading, the column was washed with 14 ml phosphate buffer (0.1M, pH 7.5) and the enzyme eluted with 0.6M phosphate buffer (pH 7.5). Activity was determined using the ammonia release assay described in Test Example 3 above.

Data set [2] addresses T1, calf intestinal mucosa adenosine deaminase (Bos taurus, UniProt P56658).
T1 construct: calf intestinal mucosa adenosine deaminase; purchased Sigma Chemical Company Limited; host or cells: calf intestinal mucosa
Description: Mammalian adenosine deaminase inhibition assay. The data set is classed as biochemical. As to the method:
Mammalian Adenosine Deaminase Inhibition Assay
A suitable source of enzyme is calf intestinal mucosa adenosine deaminase supplied by the Sigma Chemical Company Limited. The assay employed follows the protocol provided by the supplier and measures a decrease in absorption at 265 nm as the substrate adenosine is utilized. A 10 minute preincubation of enzyme and inhibitor prior to addition of the substrate was employed.

A further data set has as its system AMP deaminase. Nature of the data set: Extractable levels of AMP deaminase in treated pea seedlings. The class given is in vivo. How it is done:
as §1, with “At 15 minute intervals from 0 to 60 minutes, the reaction was stopped by the addition of 420 μl reagent 1 (0.1M phenol, 0.17 mM sodium nitroprusside) immediately followed by 275 μl reagent 2 (0.125M NaOH, 0.38M Na2 HPO4 and 5 ml HOCl in a total volume of 500 ml).” left out

The subject of a further data set is Pea seedlings. Description: In planta metabolism of carbocyclic coformycin. The class given is in vivo. Conditions: 10 μM [3H] compound via the transpiration stream; 4 hours incubation. As to the method:
Pea seedlings were grown as described in Test Example 2, harvested as described in Test Example 3 and then supplied with 10 μM (400 Ci mol^-1) [^3 H] carbocyclic coformycin via the transpiration stream. After incubation periods, pairs of seedlings were rapidly frozen in liquid nitrogen, ground to a fine powder and extracted in 2 ml ice cold 0.4M HClO4. The extracts were processed for HPLC analysis as described in Test Example 2 above except that the final sample was resuspended in 0.5 ml water instead of 10 mM HCl. [^3 H] carbocyclic coformycin and [^3 H] carbocyclic coformycin 5'-phosphate were separated using cation exchange chromatography with a Partisil (Registered Trade Mark) SCX column (8.0 cm×0.46 cm), 0.05M NH4 H2 PO4, pH 2.6; flow rate=2 ml/minute.

For data set [3], the system named is extractable ATP levels in pea seedlings. Description: Measurement of extractable ATP levels. The data set is classed as in vivo, Peas. How it is done:
Peas were grown as described in Test Example 1 and exposed to carbocyclic coformycin via the transpiration stream as outlined in Test Example 3. Individual seedlings were rapidly frozen in liquid nitrogen. The frozen tissue was ground to a fine powder using a pestle and mortar then 1 ml ice cold 0.4M HClO4 was added. The frozen acid was ground to a fine powder tissue, the mixture allowed to thaw and then incubated on ice for 15 minutes. The extract was centrifuged (4,000 rpm, 5 minutes).
ATP measurements were made using the luciferase assay and a LUMAC Biocounter M2500 (6370 AC Landgraaf, The Netherlands). Samples were diluted 1:10,000 in water and 100 μl was assayed according to the manufacturer's instructions.

T1 sequence (P56658 whole entry): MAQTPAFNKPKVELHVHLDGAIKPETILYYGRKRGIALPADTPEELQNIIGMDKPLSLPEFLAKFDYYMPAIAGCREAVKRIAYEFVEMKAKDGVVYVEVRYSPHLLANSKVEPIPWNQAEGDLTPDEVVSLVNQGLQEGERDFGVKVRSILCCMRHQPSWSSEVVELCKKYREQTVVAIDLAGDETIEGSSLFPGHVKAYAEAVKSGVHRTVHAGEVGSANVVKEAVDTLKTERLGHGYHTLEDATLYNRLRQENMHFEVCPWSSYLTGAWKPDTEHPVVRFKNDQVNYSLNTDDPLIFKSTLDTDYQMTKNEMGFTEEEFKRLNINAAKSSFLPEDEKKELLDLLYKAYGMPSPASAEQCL

Turning to `Nc1ncnc2c1ncn2[C@@H]1O[C@H](CO)[C@@H](O)[C@H]1O` [[^14 C adenosine, adenosine], in data set [1], the “% of radiolabel as ADP” value is 0%, the “% of radiolabel as AMP” value is on record as 0%, the “% of radiolabel as ATP” value is on record as 0% and the “% of radiolabel as IMP” value turned out to be 0%. The “% of radiolabel as inosine” value in data set [1] is 0%. Moreover, the “% of radiolabel as adenosine” value in data set [1] (500 µM) is on record as 100%.
For `O=P(O)(O)OC[C@H]1C[C@@H](n2cnc3c2N=CNC[C@H]3O)[C@H](O)[C@@H]1O` [carbocyclic coformycin 5'-phosphate], in the data set with plant AMP deaminase, the “inhibition of plant AMP deaminase (in words)” value is “potent inhibitor” and the IC50 amounted to 20 nM.
With `OC[C@H]1C[C@@H](n2cnc3c2N=CNC[C@H]3O)[C@H](O)[C@@H]1O` [carbocyclic coformycin], in data set [2], the “inhibition of mammalian adenosine deaminase (in words)” value is recorded as “potent inhibitor”. Moreover, the IC50 came to 25 nM in data set [2] (10 minute preincubation, substrate concentration 60 μM, read-out: 50% inhibition of adenosine deaminase) and 120000 nM on plant AMP deaminase. Also, the “extractable levels of AMP deaminase (in words)” value in the data set with AMP deaminase (applied to pea seedlings via the transpiration stream) is “rapid decrease”. Besides, in the data set on AMP deaminase (treatment for 1 hour via the transpiration stream, control 19 μmols ammonia release per gram fresh weight per minute), the “extractable levels of AMP deaminase, % of the control levels” value is given as 20-30%. The “inhibition of plant AMP deaminase (in words)” value in the data set with plant AMP deaminase is on record as “relatively poor inhibitor”. The “major metabolite in planta” value in the data set on Pea seedlings is recorded as “co-chromatographed with authentic carbocyclic coformycin 5'-phosphate”. Also, the “ATP levels relative to the control levels” value in data set [3] (100 μM via the transpiration stream, 4 hours treatment, control 333 nmols ATP per gram fresh weight) is recorded as “approximately twice”. Moreover, the “rise in extractable levels of ATP (in words)” value in data set [3] (in vivo) was “remarkable rise”.
